# Data: patent publication US6083964A, “Optical resolution of racemic aminoalkylpyridine anticonvulsants and (+) aminoalkylpyridine enantiomers as highly potent orally effective anticonvulsant drugs and excitatory amino acid antagonists” (K and K Biosciences, Inc., priority 1999, dated 2000)
# Columns and labels:
# [1] = tested on: pentylenetetrazol (Metrazole) seizure threshold in mice; conditions: cited from earlier work; for amounts of PTZ required to produce the endpoints (in words): mouse, in vivo
# [2] = tested on: maximal electroshock seizure (MES) in mice; conditions: mouse, in vivo; cited from earlier work
# [3] = tested on: maximal electroshock seizure (MES) in mice; test: Maximal electroshock seizure (MES) test, mice, i.p.; assay type: in vivo, mouse (male Carworth Farms #1); conditions: for P.I. (protective index, TD50/ED50): MES; for ED50: Mus musculus, ip, MES test, read-out: ED50
# From the text: The (+) AAP enantiomers obtained by optical resolution of racemic AAPs and the resulting highly orally effective anticonvulsant compositions of this invention are useful in the treatment of convulsive disorders. […] A series of (+) AAP enantiomers and (-) AAP enantiomers of this invention has been evaluated for anticonvulsant activity by the intraperitoneal (i.p.) and by the oral (p.o.) route using two standard seizure models in the mouse and in the rat, the maximal electroshock seizure (MES) test and the subcutaneous pentylenetetrazol (Metrazole) seizure threshold (scMet) test. […] The following Table 2 presents the results of these anticonvulsant tests with respect to several (+) and (-) AAP enantiomeric compounds derived from optical resolution of racemic AAPs of the present invention. This Table 2 identifies the specific compounds tested by their chemical name and provides the test model, the route of administration, the animal species used, and the anticonvulsant activity and toxicity in terms of ED50 and TD50 values, (the median effective and toxic dose respectively), when intraperitoneally administered to mice, and when orally administered to rats. In mice, i.p.: All compounds are emulsified in 0.5% methylcellulose. The solvent has been tested for anticonvulsant and toxic effects and found to introduce no significant bias into the testing of anticonvulsant activity. The compounds are administered intraperitoneally in a volume of 0.01 ml/gm to male Carworth Farms #1 mice weighing about 20 gm. All compounds are tested at least at three dose levels (30, 100 and 300 mg/kg) at 30 minutes and 4 hours after their administration. The Maximal Electroshock Seizure Test (MES): Maximal electroshock seizures are elicited with a 60 Hz alternating current of 50 mA intensity in mice and about 150 mA intensity in rats (5-7 times that necessary to elicit minimal electroshock seizures), delivered for 0.2 sec via corneal electrodes. A drop of 0.9% saline is instilled in the eye prior to application of the electrodes in order to […]. Abolition of the hind limb tonic extension component of the seizure is defined as protection and results are expressed as number of animals protected/number of animals tested. The Subcutaneous Pentylenetetrazol (Metrazole) Seizure Threshold Test (scMet): A 0.5% solution of 85 mg/kg of pentylenetetrazol is administered subcutaneously in the posterior midline 30 minutes or 4 hours after drug administration to the animal. […] Anticonvulsant Quantification in Mice i.p.: The ED50 values are determined in the MES, scMet and rotorod ataxia test. To determine the ED50 values, five logarithmically spaced doses of the test compound are administered to animals (male Carworth Farms #1 mice) in groups of eight, to cover 0-100% protection, and the dose required to protect 50% of the animals (ED50) together with its 95% confidence limits, is determined graphically.
# [4] = tested on: maximal electroshock seizure (MES) in rats; test: Maximal electroshock seizure (MES) test, rats, p.o.; assay type: in vivo, rat (Sprague-Dawley); conditions: p.o.; for % protection (lowest and highest) during 4 hour period: 30 mg/kg, 5 time points 0.25-4 hours, 4 rats per point
# From the text: The (+) AAP enantiomers obtained by optical resolution of racemic AAPs and the resulting highly orally effective anticonvulsant compositions of this invention are useful in the treatment of convulsive disorders. […] A series of (+) AAP enantiomers and (-) AAP enantiomers of this invention has been evaluated for anticonvulsant activity by the intraperitoneal (i.p.) and by the oral (p.o.) route using two standard seizure models in the mouse and in the rat, the maximal electroshock seizure (MES) test and the subcutaneous pentylenetetrazol (Metrazole) seizure threshold (scMet) test. […] The following Table 2 presents the results of these anticonvulsant tests with respect to several (+) and (-) AAP enantiomeric compounds derived from optical resolution of racemic AAPs of the present invention. This Table 2 identifies the specific compounds tested by their chemical name and provides the test model, the route of administration, the animal species used, and the anticonvulsant activity and toxicity in terms of ED50 and TD50 values, (the median effective and toxic dose respectively), when intraperitoneally administered to mice, and when orally administered to rats. The Maximal Electroshock Seizure Test (MES): Maximal electroshock seizures are elicited with a 60 Hz alternating current of 50 mA intensity in mice and about 150 mA intensity in rats (5-7 times that necessary to elicit minimal electroshock seizures), delivered for 0.2 sec via corneal electrodes. A drop of 0.9% saline is instilled in the eye prior to application of the electrodes in order to […]. Abolition of the hind limb tonic extension component of the seizure is defined as protection and results are expressed as number of animals protected/number of animals tested. The Subcutaneous Pentylenetetrazol (Metrazole) Seizure Threshold Test (scMet): A 0.5% solution of 85 mg/kg of pentylenetetrazol is administered subcutaneously in the posterior midline 30 minutes or 4 hours after drug administration to the animal. […] This species will be the subject of the complete anticonvulsant quantification test evaluation as described above, but after oral (gavage) administration of the candidate compound.
# [5] = Neurotoxicity, rotorod ataxia test, mice, i.p.; parameters: species or system mouse (male Carworth Farms #1); conditions: mouse, in vivo, ip, TD50
# Method: Neurotoxicity is determined by the rotorod ataxia test in mice and by the positional sense test and gait and stance test in the rat. The following Table 2 presents the results of these anticonvulsant tests with respect to several (+) and (-) AAP enantiomeric compounds derived from optical resolution of racemic AAPs of the present invention. This Table 2 identifies the specific compounds tested by their chemical name and provides the test model, the route of administration, the animal species used, and the anticonvulsant activity and toxicity in terms of ED50 and TD50 values, (the median effective and toxic dose respectively), when intraperitoneally administered to mice, and when orally administered to rats. In mice, i.p.: All compounds are emulsified in 0.5% methylcellulose. The solvent has been tested for anticonvulsant and toxic effects and found to introduce no significant bias into the testing of anticonvulsant activity. The compounds are administered intraperitoneally in a volume of 0.01 ml/gm to male Carworth Farms #1 mice weighing about 20 gm. All compounds are tested at least at three dose levels (30, 100 and 300 mg/kg) at 30 minutes and 4 hours after their administration. Neurotoxicity is evaluated in mice by the rotorod ataxia test. The animal is placed on a wooden rod of 1 and 1/8 diameter rotating at 6 rpm. Normal mice can remain on a rod rotating at this speed indefinitely. […] Anticonvulsant Quantification in Mice i.p.: The ED50 values are determined in the MES, scMet and rotorod ataxia test. To determine the ED50 values, five logarithmically spaced doses of the test compound are administered to animals (male Carworth Farms #1 mice) in groups of eight, to cover 0-100% protection, and the dose required to protect 50% of the animals (ED50) together with its 95% confidence limits, is determined graphically.
# [6] = Neurological deficit, positional sense test and gait and stance test, rats, p.o.; parameters: species or system rat (Sprague-Dawley); conditions: rat, in vivo, po
# Method: Neurotoxicity is determined by the rotorod ataxia test in mice and by the positional sense test and gait and stance test in the rat. The following Table 2 presents the results of these anticonvulsant tests with respect to several (+) and (-) AAP enantiomeric compounds derived from optical resolution of racemic AAPs of the present invention. This Table 2 identifies the specific compounds tested by their chemical name and provides the test model, the route of administration, the animal species used, and the anticonvulsant activity and toxicity in terms of ED50 and TD50 values, (the median effective and toxic dose respectively), when intraperitoneally administered to mice, and when orally administered to rats. […] This species will be the subject of the complete anticonvulsant quantification test evaluation as described above, but after oral (gavage) administration of the candidate compound. […] Neurological deficit in rats is examined by the positional sense test and gait and stance test. […] Inability to do so rapidly indicates a neurologic deficit. In the gait and stance test, a neurologic deficit is indicated by a circular or a zigzag gait, ataxia, abnormal spread of the legs, abnormal body posture, tremor, hyperactivity, lack of exploratory behavior, somnolence, stupor, or catalepsy.
smiles,measurement,setting,value
Cc1cccc(C)c1OCC(C)N (centres unmarked) [Mexiletine],seizure threshold (in words),[1]; doses slightly above the MES ED50 in mice,lowers seizure threshold at doses slightly above the MES ED50 in mice
same,MES test activity (in words),[2],potent in the MES test
CCCC(CCC)C(=O)O [valproic acid],amounts of PTZ required to produce the endpoints (in words),[1],increase the amounts of PTZ required to produce the above endpoints
"CCC(Nc1ccc(Cl)cc1)c1ccncc1 (single isomer, unassigned; (+)) [Compound 7, (+) N-(4-Chlorophenyl)-1-(4-pyridyl)propylamine]","P.I. (protective index, TD50/ED50)",[3]; listed as (4) (+) Enantiomer,2.9
same,ED50,[3],109 mg/kg
same,% protection (lowest and highest) during 4 hour period,"[4]; rat, MES, listed as (4) (+) Enantiomer",0-75%
same,TD50,[5],322 mg/kg
"CCC(Nc1ccc(Cl)c(Cl)c1)c1ccncc1 (single isomer, unassigned; (+)) [Compound 9, (+) N-(3,4-Dichlorophenyl)-1-(4-pyridyl)propylamine]","P.I. (protective index, TD50/ED50)",[3]; listed as (5) (+) Enantiomer,3.0
same,ED50,[3],91.9 mg/kg
same,% protection (lowest and highest) during 4 hour period,"[4]; rat, MES, listed as (5) (+) Enantiomer",0-75%
same,TD50,[5],279 mg/kg
"CC(Nc1ccc(Cl)c(Cl)c1)c1ccncc1 (single isomer, unassigned; (+)) [Compound 5, (+) N-(3,4-Dichlorophenyl)-1-(4-pyridyl)ethylamine]",TD50,[6],> 500 mg/kg
same,"P.I. (protective index, TD50/ED50)",[3]; listed as (3) (+) Enantiomer,> 6.6
same,ED50,[3],76.1 mg/kg
same,ED50,"[4]; Rattus norvegicus, po, MES test, read-out: ED50",32.3 mg/kg
same,% protection (lowest and highest) during 4 hour period,"[4]; rat, MES, listed as (3) (+) Enantiomer",0-100%
same,"P.I. (protective index, TD50/ED50)","[4]; rat, MES",> 15.5
same,TD50,[5],> 500 mg/kg
CCC1(c2ccccc2)C(=O)NC(=O)NC1=O [phenobarbital],amounts of PTZ required to produce the endpoints (in words),[1],increase the amounts of PTZ required to produce the above endpoints
CCC1(C)CC(=O)NC1=O (centres unmarked) [ethosuximide],amounts of PTZ required to produce the endpoints (in words),[1],increase the amounts of PTZ required to produce the above endpoints
